Assay results published in PubChem BioAssay (NCI).
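1) Cells in 96-well plates. 2) Compound, 48 h, 5 concentrations. 3) Linear interpolation between surrounding doses. 4) Unreached endpoint = highest concentration. GI50 is the concentration that inhibits growth by half. Definition used: TGI = concentration required for complete inhibition of growth.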

Key:
Assay in all cases: NCI-60 cell line screen, 48 h
IGROV1 ovarian = test system: IGROV1 ovarian
COLO 205 colon = test system: COLO 205 colon
OVCAR-4 ovarian = test system: OVCAR-4 ovarian
UACC-257 melanoma = test system: UACC-257 melanoma
SK-MEL-28 melanoma = test system: SK-MEL-28 melanoma
HL-60(TB) leukemia = test system: HL-60(TB) leukemia
MDA-MB-435 = test system: MDA-MB-435
HS 578T breast = test system: HS 578T breast
NCI-H460 lung = test system: NCI-H460 lung
HOP-92 NSCLC = test system: HOP-92 NSCLC
A498 renal = test system: A498 renal
MCF7 breast = test system: MCF7 breast
OVCAR-5 ovarian = test system: OVCAR-5 ovarian
SF-295 CNS = test system: SF-295 CNS
MALME-3M melanoma = test system: MALME-3M melanoma
SK-MEL-5 melanoma = test system: SK-MEL-5 melanoma
UO-31 renal = test system: UO-31 renal
HCT-116 colon = test system: HCT-116 colon
K-562 leukemia = test system: K-562 leukemia
KM12 colon = test system: KM12 colon
HCC-2998 colon = test system: HCC-2998 colon
SW-620 colon = test system: SW-620 colon
SF-539 CNS = test system: SF-539 CNS
CAKI-1 renal = test system: CAKI-1 renal
786-0 renal = test system: 786-0 renal
DU-145 prostate = test system: DU-145 prostate
CCRF-CEM leukemia = test system: CCRF-CEM leukemia
RPMI-8226 leukemia = test system: RPMI-8226 leukemia
OVCAR-8 ovarian = test system: OVCAR-8 ovarian
HOP-62 NSCLC = test system: HOP-62 NSCLC
MDA-MB-231 breast = test system: MDA-MB-231 breast
RXF 393 renal = test system: RXF 393 renal
U251 CNS = test system: U251 CNS
PC-3 prostate = test system: PC-3 prostate
SNB-19 CNS = test system: SNB-19 CNS
HCT-15 colon = test system: HCT-15 colon
ACHN renal = test system: ACHN renal
T-47D breast = test system: T-47D breast
M14 melanoma = test system: M14 melanoma
NCI-H23 lung = test system: NCI-H23 lung
SNB-75 CNS = test system: SNB-75 CNS
SK-OV-3 ovarian = test system: SK-OV-3 ovarian
LOX IMVI melanoma = test system: LOX IMVI melanoma
SF-268 CNS = test system: SF-268 CNS
MOLT-4 leukemia = test system: MOLT-4 leukemia
OVCAR-3 ovarian = test system: OVCAR-3 ovarian
NCI-H226 lung = test system: NCI-H226 lung
NCI/ADR-RES ovarian = test system: NCI/ADR-RES ovarian
A549 NSCLC = test system: A549 NSCLC
SR leukemia = test system: SR leukemia
EKVX NSCLC = test system: EKVX NSCLC
UACC-62 melanoma = test system: UACC-62 melanoma

`Nc1nc(N)c(N=Nc2ccccc2)c(-c2ccccc2)n1` showed a GI50 (IGROV1 ovarian) of 2.01 µM, a TGI (IGROV1 ovarian) of 22.2 µM and a GI50 (COLO 205 colon) of 9.29 µM. It also gave a TGI (COLO 205 colon) of 25.8 µM, a GI50 (OVCAR-4 ovarian) of 4.03 µM and a TGI (OVCAR-4 ovarian) of 20.7 µM. The GI50 (UACC-257 melanoma) was 13.7 µM, the TGI (UACC-257 melanoma) was 35.9 µM and the GI50 (SK-MEL-28 melanoma) was 11.3 µM. For the same compound, the TGI (SK-MEL-28 melanoma) was 28.2 µM, the GI50 (HL-60(TB) leukemia) was 11.1 µM and the TGI (HL-60(TB) leukemia) was over 100 µM. The GI50 (MDA-MB-435) was 11.5 µM, the TGI (MDA-MB-435) was 29.5 µM and the GI50 (HS 578T breast) was 1.66 µM. The TGI (HS 578T breast) was 6.88 µM, the GI50 (NCI-H460 lung) was 4.16 µM and the TGI (NCI-H460 lung) was 17.8 µM. For the same compound, the GI50 (HOP-92 NSCLC) was 1.45 µM, the TGI (HOP-92 NSCLC) was 9.95 µM and the GI50 (A498 renal) was 2.07 µM. It also gave a TGI (A498 renal) of 11.4 µM, a GI50 (MCF7 breast) of 0.362 µM and a TGI (MCF7 breast) of 18.1 µM. It also gave a GI50 (OVCAR-5 ovarian) of 6.47 µM, a TGI (OVCAR-5 ovarian) of 23.8 µM and a GI50 (SF-295 CNS) of 3.18 µM. It also gave a TGI (SF-295 CNS) of 18.6 µM, a GI50 (MALME-3M melanoma) of 4.33 µM and a TGI (MALME-3M melanoma) of 24.9 µM. It also gave a GI50 (SK-MEL-5 melanoma) of 3.74 µM, a TGI (SK-MEL-5 melanoma) of 20.3 µM and a GI50 (UO-31 renal) of 2.54 µM. It also gave a TGI (UO-31 renal) of 24.7 µM, a GI50 (HCT-116 colon) of 5.12 µM and a TGI (HCT-116 colon) of 18.3 µM. The GI50 (K-562 leukemia) was 10.3 µM, the TGI (K-562 leukemia) was over 100 µM and the GI50 (KM12 colon) was 2.89 µM. The TGI (KM12 colon) was 14.5 µM, the GI50 (HCC-2998 colon) was 14.3 µM and the TGI (HCC-2998 colon) was over 100 µM. The GI50 (SW-620 colon) was 12.8 µM, the TGI (SW-620 colon) was 27.2 µM and the GI50 (SF-539 CNS) was 6.39 µM. The TGI (SF-539 CNS) was 21.1 µM, the GI50 (CAKI-1 renal) was 3.57 µM and the TGI (CAKI-1 renal) was 23.5 µM. It also gave a GI50 (786-0 renal) of 5.98 µM, a TGI (786-0 renal) of 19.4 µM and a GI50 (DU-145 prostate) of 9.9 µM. The TGI (DU-145 prostate) was 34.1 µM, the GI50 (CCRF-CEM leukemia) was 8.14 µM and the TGI (CCRF-CEM leukemia) was over 100 µM. For the same compound, the GI50 (RPMI-8226 leukemia) was 7.98 µM, the TGI (RPMI-8226 leukemia) was 46 µM and the GI50 (OVCAR-8 ovarian) was 11.1 µM. For the same compound, the TGI (OVCAR-8 ovarian) was 37.4 µM, the GI50 (HOP-62 NSCLC) was 4.25 µM and the TGI (HOP-62 NSCLC) was 19.2 µM. It also gave a GI50 (MDA-MB-231 breast) of 5.84 µM, a TGI (MDA-MB-231 breast) of 30.5 µM and a GI50 (RXF 393 renal) of 3.42 µM. It also gave a TGI (RXF 393 renal) of 15.4 µM, a GI50 (U251 CNS) of 8.27 µM and a TGI (U251 CNS) of 26.8 µM. It also gave a GI50 (PC-3 prostate) of 3.02 µM, a TGI (PC-3 prostate) of 20.8 µM and a GI50 (SNB-19 CNS) of 12.5 µM. For the same compound, the TGI (SNB-19 CNS) was 43.3 µM, the GI50 (HCT-15 colon) was 5.95 µM and the TGI (HCT-15 colon) was 39.9 µM. For the same compound, the GI50 (ACHN renal) was 4.49 µM, the TGI (ACHN renal) was 19 µM and the GI50 (T-47D breast) was 0.487 µM. For the same compound, the TGI (T-47D breast) was 6.91 µM, the GI50 (M14 melanoma) was 12 µM and the TGI (M14 melanoma) was 34.6 µM. For the same compound, the GI50 (NCI-H23 lung) was 10.4 µM, the TGI (NCI-H23 lung) was 31.4 µM and the GI50 (SNB-75 CNS) was 1.41 µM. The TGI (SNB-75 CNS) was 7.8 µM, the GI50 (SK-OV-3 ovarian) was 4.4 µM and the TGI (SK-OV-3 ovarian) was 17.5 µM. For the same compound, the GI50 (LOX IMVI melanoma) was 11 µM, the TGI (LOX IMVI melanoma) was 23.5 µM and the GI50 (SF-268 CNS) was 5.86 µM. For the same compound, the TGI (SF-268 CNS) was 66.8 µM, the GI50 (MOLT-4 leukemia) was 3.68 µM and the TGI (MOLT-4 leukemia) was 68.7 µM. The GI50 (OVCAR-3 ovarian) was 10.4 µM, the TGI (OVCAR-3 ovarian) was 23 µM and the GI50 (NCI-H226 lung) was 4.19 µM. The TGI (NCI-H226 lung) was 19.4 µM, the GI50 (NCI/ADR-RES ovarian) was 9.53 µM and the TGI (NCI/ADR-RES ovarian) was 53.1 µM. For the same compound, the GI50 (A549 NSCLC) was 6.85 µM, the TGI (A549 NSCLC) was 22.8 µM and the GI50 (SR leukemia) was 4.54 µM. It also gave a TGI (SR leukemia) of 73.3 µM, a GI50 (EKVX NSCLC) of 3.75 µM and a TGI (EKVX NSCLC) of 30.8 µM. It also gave a GI50 (UACC-62 melanoma) of 4.33 µM and a TGI (UACC-62 melanoma) of 20.1 µM.
